This note sets out measurements from US20240252508A1, “Novel glucose uptake inhibitors for use in the treatment of cancer” (NOVELYEAST BV, priority 2021, published 2024).

In assay [1] the test system is A549 lung adenocarcinoma cells. Kind of assay: A549 cell proliferation / growth inhibition. As to conditions: for Selected from primary screen for growth inhibition of A549 cells at 50 μM: 50 μM compound, 1 mM glucose; for Selected for having an IC50 ratio (10 mM glucose: 1 mM glucose) of A549 growth higher than WBC-A: IC50 on 10 mM vs 1 mM glucose, compared with WBC-A. It is filed as cell-based, human. The protocol: The analog library (n=203) was screened for inhibition of growth of A549 cells on RPMI medium supplemented with 1 mM glucose. DMSO (green bar) and WBC-A (orange bar) served as negative and positive control, respectively. In addition, the reference glucose transport inhibitors STF-31, Fasentin, BAY-876, WZB-117 and Cytochalasin B were included and indicated in red. Compounds were added at 50 μM concentration. Number of cells was determined by counting nuclei stained by Hoechst after three days of growth.
For both adherent A549 and MCF10Δ H-RAS^V12 cell lines, growth curves were established using the IncuCyte® ZOOM technology. By collecting phase contrast images, the IncuCyte® software provides a calculated confluency percentage from which growth curves can be deducted.
Cells were seeded at a density of 1000-1500 cells/well in a Nunc-Edge™ 96-well plate (Thermo Fisher Scientific) and growth was typically measured over 3 to 5 days. For the measurement of apoptosis induction using the MCF10Δ H-RAS^V12 cell line, the IncuCyte® Caspase-3/7 green dye was added to the medium in the recommended concentration at the beginning of the growth curve experiment. Apoptosis was detected by taking fluorescent images by excitation at 488 nm followed by IncuCyte® software analysis. Cell growth of the KMS-12-PE multiple myeloma cell line, which grows in suspension, was measured by manual cell counting. Cells were initially seeded at a density of 10^4 cells/well and incubated for 4 days after which the cell number was counted. For all cell lines, the same medium used for pregrowth was also used for the growth curve experiment, albeit with different glucose concentrations depending on the experimental design. With compound administration, the final concentration of DMSO never exceeded 0.1%. Typically, at least four technical repeats were included per condition.

The test system of a further assay is tps1Δ cells. The assay is described as follows: Growth rescue of tps1Δ strain on glucose (growth curves, 2% galactose medium). It is filed as cell-based, S. cerevisiae. As to conditions: 100 μM compound, 2.5 mM glucose. As for the experimental part:
Growth curves were made by measuring OD595 in a 96-well plate using the Multiskan™ FC Microplate Photometer (Thermo Fisher Scientific). Typically, for tps1Δ rescue experiments (FIG. 2b-e; FIG. 4a), cells were (pre)grown in Complete Synthetic medium containing 2% galactose.
Compounds were always added 10 min prior to glucose addition to ensure maximal interaction between the cells and compounds. Cells originating from the preculture were harvested, washed in medium without sugar, after which they were resuspended to an OD of 0.1 in 200 μL of the appropriate medium. At least three technical replicates were included per condition. OD595 was measured at 30° C. every 30 min with a 10-min shaking interval.

As for `Cc1nc(SCC(=O)N2CCOCC2)c2ccsc2n1` [78C], the “Selected from primary screen for growth inhibition of A549 cells at 50 μM” value in assay [1] was “No”. In the assay on tps1Δ cells, the “Rescue of the tps1Δ strain on 2.5 mM glucose at 100 μM” value (shortened to “Rescue of the tps1Δ strain”) was “No”.

Consider `Cc1nc(Sc2nnnn2C2CC2)c2c(-c3ccccc3)csc2n1` [56A], for which, in assay [1], the “Selected from primary screen for growth inhibition of A549 cells at 50 μM” value is recorded as “Yes” and the “Selected for having an IC50 ratio (10 mM glucose: 1 mM glucose) of A549 growth higher than WBC-A” value (shortened to “Selected for having an IC50 ratio”) is “Lower IC50 ratio”. Besides, in the assay with tps1Δ cells, the “Rescue of the tps1Δ strain” value is recorded as “No”.

As for `Cc1nc(Sc2nnnn2C)c2c(-c3cccs3)csc2n1` [39A], in assay [1], the “Selected from primary screen for growth inhibition of A549 cells at 50 μM” value was “Yes” and the “Selected for having an IC50 ratio” value is recorded as “Lower IC50 ratio”. Moreover, the “Rescue of the tps1Δ strain” value in the assay with tps1Δ cells is “No”.

For `Cc1nc(SC(C)C(=O)NC(C)C)c2c(-c3cccs3)csc2n1` (stereo not drawn) [33B], in assay [1], the “Selected from primary screen for growth inhibition of A549 cells at 50 μM” value is given as “Yes” and the “Selected for having an IC50 ratio” value is on record as “Lower IC50 ratio”. For the same compound, the “Rescue of the tps1Δ strain” value in the assay with tps1Δ cells is reported as “No”.

Turning to `COc1ccccc1NC(=O)CSc1ncnc2scc(-c3ccccc3)c12` [11B], the “Selected from primary screen for growth inhibition of A549 cells at 50 μM” value in assay [1] was “No”. Further, the “Rescue of the tps1Δ strain” value in the assay with tps1Δ cells is recorded as “No”.

`Cc1ccc(-c2csc3nc(CSc4nnc5n4CCCCC5)[nH]c(=O)c23)s1` [4A]: in assay [1], the “Selected from primary screen for growth inhibition of A549 cells at 50 μM” value was “No”. Besides, in the assay with tps1Δ cells, the “Rescue of the tps1Δ strain” value is recorded as “No”.

With `Cc1nc(NCCN2CCOCC2)c2c(-c3ccccc3)csc2n1` [85C], in assay [1], the “Selected from primary screen for growth inhibition of A549 cells at 50 μM” value is reported as “Yes” and the “Selected for having an IC50 ratio” value is “Higher IC50 ratio, but false-positive”. Moreover, in the assay on tps1Δ cells, the “Rescue of the tps1Δ strain” value is given as “No”.

For the compound `CCn1c(Sc2nc(C)nc3scc(-c4cccs4)c23)n[nH]c1=O` [51A], in assay [1], the “Selected from primary screen for growth inhibition of A549 cells at 50 μM” value was “Yes” and the “Selected for having an IC50 ratio” value is on record as “Lower IC50 ratio”. Also, the “Rescue of the tps1Δ strain” value in the assay with tps1Δ cells is given as “No”.

As for `Cc1nc(NCC(=O)Nc2ccccc2Br)c2c(-c3cccs3)csc2n1` [15C], in assay [1], the “Selected from primary screen for growth inhibition of A549 cells at 50 μM” value was “Yes”; the “Selected for having an IC50 ratio” value is “Higher IC50 ratio and confirmed”. The “Rescue of the tps1Δ strain” value in the assay with tps1Δ cells is reported as “No”.

Take `Cc1nc(Sc2nnc(-c3cccnc3)n2C2CC2)c2c(-c3cccs3)csc2n1` [24A]: in assay [1], the “Selected from primary screen for growth inhibition of A549 cells at 50 μM” value is “Yes” and the “Selected for having an IC50 ratio” value was “Lower IC50 ratio”. Besides, the “Rescue of the tps1Δ strain” value in the assay on tps1Δ cells is “No”.

For `Cc1nc(SCCO)c2c3c(sc2n1)CCCC3` [22C], in assay [1], the “Selected from primary screen for growth inhibition of A549 cells at 50 μM” value was “No”. Further, the “Rescue of the tps1Δ strain” value in the assay with tps1Δ cells is “No”.

In the case of `Cc1nc(NC2CCC(O)CC2)c2c(-c3cccs3)csc2n1` (stereo not drawn) [42B], the “Selected from primary screen for growth inhibition of A549 cells at 50 μM” value in assay [1] is on record as “No”. The “Rescue of the tps1Δ strain” value in the assay on tps1Δ cells is “No”.

Consider `Cc1nnc(Sc2nc(-c3cccs3)nc3scc(-c4ccccc4)c23)n1N` [8A], for which the “Selected from primary screen for growth inhibition of A549 cells at 50 μM” value in assay [1] is on record as “No”. Besides, the “Rescue of the tps1Δ strain” value with tps1Δ cells was “No”.

On to `CC(Sc1nnc2n1CCCCC2)c1nc2scc(-c3cccs3)c2c(=O)[nH]1` (stereo not drawn) [6A], for which the “Selected from primary screen for growth inhibition of A549 cells at 50 μM” value in assay [1] is recorded as “No”. In the assay on tps1Δ cells, the “Rescue of the tps1Δ strain” value was “No”.

In the case of `Cc1nc(SCC(=O)NCC(=O)Nc2cccc(C)c2C)c2c(-c3cccs3)csc2n1` [41B], the “Selected from primary screen for growth inhibition of A549 cells at 50 μM” value in assay [1] is “No”. The “Rescue of the tps1Δ strain” value with tps1Δ cells was “No”.

`Cc1nc(SC(C)C(=O)Nc2ccc(S(N)(=O)=O)cc2)c2c(-c3cccs3)csc2n1` (stereo not drawn) [14B]: in assay [1], the “Selected from primary screen for growth inhibition of A549 cells at 50 μM” value is “Yes” and the “Selected for having an IC50 ratio” value was “Lower IC50 ratio”. The “Rescue of the tps1Δ strain” value in the assay on tps1Δ cells is given as “No”.

Turning to `c1ccc(-c2cc3c(N4CCCC4c4nnc5n4CCCCC5)ncnc3s2)cc1` (stereo not drawn) [22A], the “Selected from primary screen for growth inhibition of A549 cells at 50 μM” value in assay [1] was “No”. Moreover, the “Rescue of the tps1Δ strain” value with tps1Δ cells was “No”.

As to `Cc1nc(N2CCCC(c3nncn3C)C2)c2c(-c3cccs3)csc2n1` (stereo not drawn) [38A], the “Selected from primary screen for growth inhibition of A549 cells at 50 μM” value in assay [1] is on record as “No”. The “Rescue of the tps1Δ strain” value with tps1Δ cells is “No”.

Regarding `CSc1nnc(Sc2nc(C)nc3scc(-c4cccs4)c23)s1` [29A], the “Selected from primary screen for growth inhibition of A549 cells at 50 μM” value in assay [1] is reported as “No”. Further, in the assay on tps1Δ cells, the “Rescue of the tps1Δ strain” value was “No”.

On to `Cc1nc(SCC(=O)NC(=O)NCc2ccco2)c2c(-c3cccs3)csc2n1` [28B], for which the “Selected from primary screen for growth inhibition of A549 cells at 50 μM” value in assay [1] is given as “No”. Also, the “Rescue of the tps1Δ strain” value in the assay on tps1Δ cells is reported as “No”.

On to `OCCSc1ncnc2scc(-c3ccc(F)cc3)c12` [56C], for which, in assay [1], the “Selected from primary screen for growth inhibition of A549 cells at 50 μM” value is “No”. The “Rescue of the tps1Δ strain” value with tps1Δ cells is “No”.

Regarding `Cc1ccc(-c2csc3ncnc(Sc4ncccn4)c23)cc1` [50A], the “Selected from primary screen for growth inhibition of A549 cells at 50 μM” value in assay [1] is “No”. Also, the “Rescue of the tps1Δ strain” value with tps1Δ cells is “No”.

For the compound `Cc1nc(SCC(=O)Nc2ccccc2-c2ccccc2)c2c(-c3cccs3)csc2n1` [13B], in assay [1], the “Selected from primary screen for growth inhibition of A549 cells at 50 μM” value is “Yes” and the “Selected for having an IC50 ratio” value is “Higher IC50 ratio, but false-positive”. In addition, in the assay with tps1Δ cells, the “Rescue of the tps1Δ strain” value is “No”.

Turning to `c1nc(Sc2nnc3n2CCCCC3)c2c3c(sc2n1)CCCC3` [65A], the “Selected from primary screen for growth inhibition of A549 cells at 50 μM” value in assay [1] is recorded as “No”. Moreover, the “Rescue of the tps1Δ strain” value with tps1Δ cells is on record as “No”.

`Cc1ccc(-c2csc3ncnc(Sc4nnnn4C)c23)cc1` [57A]: in assay [1], the “Selected from primary screen for growth inhibition of A549 cells at 50 μM” value is “Yes” and the “Selected for having an IC50 ratio” value is “Lower IC50 ratio”. Moreover, the “Rescue of the tps1Δ strain” value in the assay with tps1Δ cells was “No”.

As for `OCCCSc1ncnc2scc(-c3ccc(F)cc3)c12` [53C], the “Selected from primary screen for growth inhibition of A549 cells at 50 μM” value in assay [1] is listed as “No”. Besides, the “Rescue of the tps1Δ strain” value in the assay on tps1Δ cells is reported as “No”.

With `Cc1nc(Sc2nnc3sc4ccccc4n23)c2c3c(sc2n1)CCCC3` [51C], the “Selected from primary screen for growth inhibition of A549 cells at 50 μM” value in assay [1] was “No”. In the assay with tps1Δ cells, the “Rescue of the tps1Δ strain” value is reported as “No”.

For the compound `CCn1c(Sc2nc(C)nc3scc(-c4cccs4)c23)nnc1-c1ccncc1` [43C], the “Selected from primary screen for growth inhibition of A549 cells at 50 μM” value in assay [1] is “Yes”. For the same compound, in the assay on tps1Δ cells, the “Rescue of the tps1Δ strain” value is reported as “Yes”.

Consider `COc1ccc(-c2csc3nc(C)nc(SCCO)c23)cc1OC` [18C], for which the “Selected from primary screen for growth inhibition of A549 cells at 50 μM” value in assay [1] is recorded as “No”. The “Rescue of the tps1Δ strain” value with tps1Δ cells is “No”.

Take `Cc1nc(NCC(=O)N2CCCC2)c2c(-c3cccs3)csc2n1` [24B]: in assay [1], the “Selected from primary screen for growth inhibition of A549 cells at 50 μM” value is “Yes” and the “Selected for having an IC50 ratio” value is on record as “Lower IC50 ratio”. Further, the “Rescue of the tps1Δ strain” value with tps1Δ cells is “No”.

Turning to `Cc1nnc(SCC(=O)NCc2ccco2)c2c1cnn2-c1ccccc1` [71C], in assay [1], the “Selected from primary screen for growth inhibition of A549 cells at 50 μM” value is “No”. For the same compound, in the assay with tps1Δ cells, the “Rescue of the tps1Δ strain” value is listed as “No”.

With `Cc1nnc(Sc2ncnc3scc(-c4ccccc4)c23)n1C` [19A], the “Selected from primary screen for growth inhibition of A549 cells at 50 μM” value in assay [1] is reported as “No”. Also, in the assay with tps1Δ cells, the “Rescue of the tps1Δ strain” value is listed as “No”.
